How the values were obtained:
[1] = target: T1, Recombinant STAT6 protein (STAT6(W123-T658)) (Homo sapiens, UniProt P42226); experiment: STAT6 Fluorescence Polarization (FP) Assay; type: binding; details: STAT6(W123-T658) 250 nM, probe 5-FAM-ApYKPFQDLI-NH2 2 nM, 45-minute incubation
T1 construct: STAT6(W123-T658)
T1 sequence (P42226 123-658): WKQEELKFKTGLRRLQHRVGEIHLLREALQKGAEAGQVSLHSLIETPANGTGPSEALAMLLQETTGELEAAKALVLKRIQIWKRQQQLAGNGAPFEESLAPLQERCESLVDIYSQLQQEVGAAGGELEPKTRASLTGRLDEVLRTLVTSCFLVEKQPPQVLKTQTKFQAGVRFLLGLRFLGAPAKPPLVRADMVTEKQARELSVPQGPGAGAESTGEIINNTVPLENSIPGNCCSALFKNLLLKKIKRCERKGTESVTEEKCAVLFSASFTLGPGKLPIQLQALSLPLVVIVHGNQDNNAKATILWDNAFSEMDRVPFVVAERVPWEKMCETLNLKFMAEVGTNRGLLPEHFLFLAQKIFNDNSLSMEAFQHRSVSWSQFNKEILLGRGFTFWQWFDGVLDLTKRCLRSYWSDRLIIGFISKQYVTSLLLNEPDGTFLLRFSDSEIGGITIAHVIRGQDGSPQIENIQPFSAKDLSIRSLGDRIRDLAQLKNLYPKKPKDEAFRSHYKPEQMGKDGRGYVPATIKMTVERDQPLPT
Method in brief: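 Competitive displacement of a fluorescent phosphotyrosine peptide (2 nM) from recombinant STAT6 W123-T658 (250 nM), 45 min at room temperature in 10 mM HEPES pH 7.4, 50 mM NaCl, 2 mM DTT. mP fitted against log compound for IC50, grouped A (≤300 nM) to D (>30 μM).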

[2] = target: T2, Recombinant STAT3 protein (STAT3(G127-I722)) (Homo sapiens, UniProt P40763); experiment: STAT3 Fluorescence Polarization (FP) Assay; type: binding; details: STAT3(G127-I722) 25 nM, probe 5-FAM-GpYLPQTV-NH2 2 nM, 45-minute incubation
T2 construct: STAT3(G127-I722)
T2 sequence (P40763 127-722, species assumed): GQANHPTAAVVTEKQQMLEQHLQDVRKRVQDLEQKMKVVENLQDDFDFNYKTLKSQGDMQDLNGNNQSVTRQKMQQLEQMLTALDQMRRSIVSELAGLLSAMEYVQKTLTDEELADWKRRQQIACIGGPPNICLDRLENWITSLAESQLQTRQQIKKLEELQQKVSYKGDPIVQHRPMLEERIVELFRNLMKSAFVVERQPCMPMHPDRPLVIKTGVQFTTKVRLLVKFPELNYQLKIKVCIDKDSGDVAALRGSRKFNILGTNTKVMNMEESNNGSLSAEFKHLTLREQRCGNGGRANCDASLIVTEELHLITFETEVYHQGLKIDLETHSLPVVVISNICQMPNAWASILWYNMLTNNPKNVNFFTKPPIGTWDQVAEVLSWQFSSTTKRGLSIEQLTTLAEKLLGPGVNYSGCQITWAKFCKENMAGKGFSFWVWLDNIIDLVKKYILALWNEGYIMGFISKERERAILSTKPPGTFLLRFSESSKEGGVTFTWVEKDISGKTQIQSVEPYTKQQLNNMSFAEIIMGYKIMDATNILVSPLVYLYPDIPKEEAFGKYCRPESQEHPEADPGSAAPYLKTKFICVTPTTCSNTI
Method in brief: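 Serially diluted compounds (1% DMSO) were mixed with 2 nM fluorescent phosphotyrosine peptide and 25 nM STAT3 construct G127-I722, pH 7.4, incubated 45 min at room temperature. IC50 values from fitted polarization curves are reported as categories A (≤100 nM), B, C, D (>10 μM).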

Row | SMILES | IC50 [1] [µM] | IC50 [2] [µM]
1 | Cc1ncccc1C1CN(C(=O)[C@@H]2CC[C@@H]3C[C@@H]4C[C@@H]4C[C@H](NC(=O)c4cc5cc(C(F)(F)P(=O)(O)O)ccc5s4)C(=O)N32)C1 [Compound 55, (difluoro(2-(((3S,6S,7aR,8aS,9aR)-3-(3-(2-methylpyridin-3-yl)azetidine-1-carbonyl)-5-oxodecahydro-1H-cyclopropa[d]pyrrolo[1,2-a]azocin-6-yl)carbamoyl)benzo[b]thiophen-5-yl)methyl)phosphonic acid] | 3 to 30 | < 0.1
2 | Cc1cccnc1C1CN(C(=O)[C@@H]2CC[C@@H]3C[C@@H]4C[C@@H]4C[C@H](NC(=O)c4cc5cc(C(F)(F)P(=O)(O)O)ccc5s4)C(=O)N32)C1 [Compound 58, (difluoro(2-(((3S,6S,7aR,8aS,9aR)-3-(3-(3-methylpyridin-2-yl)azetidine-1-carbonyl)-5-oxodecahydro-1H-cyclopropa[d]pyrrolo[1,2-a]azocin-6-yl)carbamoyl)benzo[b]thiophen-5-yl)methyl)phosphonic acid] | 3 to 30 | < 0.1
3 | O=C(N[C@H]1C[C@H]2C[C@H]2C[C@H]2CC[C@@H](C(=O)N3CC(n4ccnc4)C3)N2C1=O)c1ccc2ccc(C(F)(F)P(=O)(O)O)cc2c1 [Compound 59, ((7-(((3S,6S,7aR,8aS,9aR)-3-(3-(1H-imidazol-1-yl)azetidine-1-carbonyl)-5-oxodecahydro-1H-cyclopropa[d]pyrrolo[1,2-a]azocin-6-yl)carbamoyl)naphthalen-2-yl)difluoromethyl)phosphonic acid] | 3 to 30 | < 0.1
4 | O=C(N[C@H]1C[C@@H]2C[C@@H]2C[C@H]2CC[C@@H](C(=O)N3CC(c4cncnc4)C3)N2C1=O)c1cc2cc(C(F)(F)P(=O)(O)O)ccc2s1 [Compound 61, (difluoro(2-(((3S,6S,7aS,8aR,9aR)-5-oxo-3-(3-(pyrimidin-5-yl)azetidine-1-carbonyl)decahydro-1H-cyclopropa[d]pyrrolo[1,2-a]azocin-6-yl)carbamoyl)benzo[b]thiophen-5-yl)methyl)phosphonic acid] | 3 to 30 | < 0.1
5 | N#Cc1ccc(C2(F)CN(C(=O)[C@@H]3CC[C@@H]4C[C@H]5C[C@H]5C[C@H](NC(=O)c5cc6cc(C(F)(F)P(=O)(O)O)ccc6s5)C(=O)N43)C2)cc1 [Compound 62, ((2-(((3S,6S,7aS,8aR,9aR)-3-(3-(4-cyanophenyl)-3-fluoroazetidine-1-carbonyl)-5-oxodecahydro-1H-cyclopropa[d]pyrrolo[1,2-a]azocin-6-yl)carbamoyl)benzo[b]thiophen-5-yl)difluoromethyl)phosphonic acid] | 0.3 to 3 | < 0.1
6 | O=C(N[C@H]1C[C@H]2C[C@H]2C[C@H]2CC[C@@H](C(=O)NC3CN(C(=O)CCC(F)(F)F)C3)N2C1=O)c1cc2cc(C(F)(F)P(=O)(O)O)ccc2s1 [Compound 63, (difluoro(2-(((3S,6S,7aR,8aS,9aR)-5-oxo-3-((1-(4,4,4-trifluorobutanoyl)azetidin-3-yl)carbamoyl)decahydro-1H-cyclopropa[d]pyrrolo[1,2-a]azocin-6-yl)carbamoyl)benzo[b]thiophen-5-yl)methyl)phosphonic acid] | 3 to 30 | < 0.1
7 | O=C(N[C@H]1C[C@@H]2C[C@@H]2[C@H]2CC[C@@H](C(=O)N3CC(c4cccnc4)C3)N2C1=O)c1cc2cc(C(F)(F)P(=O)(O)O)ccc2s1 [Compound 67, (difluoro(2-(((3S,6S,7aS,8aS,8bR)-5-oxo-3-(3-(pyridin-3-yl)azetidine-1-carbonyl)decahydrocyclopropa[c]pyrrolo[1,2-a]azepin-6-yl)carbamoyl)benzo[b]thiophen-5-yl)methyl)phosphonic acid] | 0.3 to 3 | < 0.1
8 | CS(=O)(=O)CC1CN(C(=O)[C@@H]2CC[C@@H]3C[C@@H]4C[C@@H]4C[C@H](NC(=O)c4cc5cc(C(F)(F)P(=O)(O)O)ccc5s4)C(=O)N32)C1 [Compound 69, (difluoro(2-(((3S,6S,7aR,8aS,9aR)-3-(3-((methylsulfonyl)methyl)azetidine-1-carbonyl)-5-oxodecahydro-1H-cyclopropa[d]pyrrolo[1,2-a]azocin-6-yl)carbamoyl)benzo[b]thiophen-5-yl)methyl)phosphonic acid] | 3 to 30 | < 0.1
9 | N#CC1(c2ccccn2)CN(C(=O)[C@@H]2CC[C@@H]3C[C@@H]4C[C@@H]4C[C@H](NC(=O)c4cc5cc(C(F)(F)P(=O)(O)O)ccc5s4)C(=O)N32)C1 [Compound 70, ((2-(((3S,6S,7aR,8aS,9aR)-3-(3-cyano-3-(pyridin-2-yl)azetidine-1-carbonyl)-5-oxodecahydro-1H-cyclopropa[d]pyrrolo[1,2-a]azocin-6-yl)carbamoyl)benzo[b]thiophen-5-yl)difluoromethyl)phosphonic acid] | 0.3 to 3 | < 0.1

More lines, now with the values ahead:

Row | IC50 [1] [µM] | IC50 [2] [µM] | SMILES
10 | 0.3 to 3 | < 0.1 | O=C(N[C@H]1C[C@H]2C[C@H]2C[C@H]2CC[C@@H](C(=O)N3CC(c4c[nH]cn4)C3)N2C1=O)c1cc2cc(C(F)(F)P(=O)(O)O)ccc2s1 [Compound 54, ((2-(((3S,6S,7aR,8aS,9aR)-3-(3-(1H-imidazol-4-yl)azetidine-1-carbonyl)-5-oxodecahydro-1H-cyclopropa[d]pyrrolo[1,2-a]azocin-6-yl)carbamoyl)benzo[b]thiophen-5-yl)difluoromethyl)phosphonic acid]
11 | 0.3 to 3 | < 0.1 | Cc1ccncc1C1CN(C(=O)[C@@H]2CC[C@@H]3C[C@@H]4C[C@@H]4C[C@H](NC(=O)c4cc5cc(C(F)(F)P(=O)(O)O)ccc5s4)C(=O)N32)C1 [Compound 56, (difluoro(2-(((3S,6S,7aR,8aS,9aR)-3-(3-(4-methylpyridin-3-yl)azetidine-1-carbonyl)-5-oxodecahydro-1H-cyclopropa[d]pyrrolo[1,2-a]azocin-6-yl)carbamoyl)benzo[b]thiophen-5-yl)methyl)phosphonic acid]
12 | 3 to 30 | 0.1 to 1 | O=C(N[C@H]1C[C@@H]2C[C@@H]2C[C@H]2CC[C@@H](C(=O)NC3CN([C@H]4CCOC4)C3)N2C1=O)c1cc2cc(C(F)(F)P(=O)(O)O)ccc2s1 [Compound 57, (difluoro(2-(((3S,6S,7aS,8aR,9aR)-5-oxo-3-((1-((S)-tetrahydrofuran-3-yl)azetidin-3-yl)carbamoyl)decahydro-1H-cyclopropa[d]pyrrolo[1,2-a]azocin-6-yl)carbamoyl)benzo[b]thiophen-5-yl)methyl)phosphonic acid]
13 | 0.3 to 3 | < 0.1 | Cc1cccc(C2CN(C(=O)[C@@H]3CC[C@@H]4C[C@@H]5C[C@@H]5C[C@H](NC(=O)c5cc6cc(C(F)(F)P(=O)(O)O)ccc6s5)C(=O)N43)C2)n1 [Compound 60, (difluoro(2-(((3S,6S,7aR,8aS,9aR)-3-(3-(6-methylpyridin-2-yl)azetidine-1-carbonyl)-5-oxodecahydro-1H-cyclopropa[d]pyrrolo[1,2-a]azocin-6-yl)carbamoyl)benzo[b]thiophen-5-yl)methyl)phosphonic acid]
14 | 0.3 to 3 | < 0.1 | O=C(N[C@H]1C[C@@H]2C[C@@H]2C[C@H]2CC[C@@H](C(=O)N3CC(F)(c4ccccc4)C3)N2C1=O)c1cc2cc(C(F)(F)P(=O)(O)O)ccc2s1 [Compound 64, (difluoro(2-(((3S,6S,7aS,8aR,9aR)-3-(3-fluoro-3-phenylazetidine-1-carbonyl)-5-oxodecahydro-1H-cyclopropa[d]pyrrolo[1,2-a]azocin-6-yl)carbamoyl)benzo[b]thiophen-5-yl)methyl)phosphonic acid]
15 | 3 to 30 | < 0.1 | O=C(N[C@H]1C[C@@H]2C[C@@H]2C[C@H]2CC[C@@H](C(=O)N3CC(c4ncccn4)C3)N2C1=O)c1cc2cc(C(F)(F)P(=O)(O)O)ccc2s1 [Compound 65, (difluoro(2-(((3S,6S,7aS,8aR,9aR)-5-oxo-3-(3-(pyrimidin-2-yl)azetidine-1-carbonyl)decahydro-1H-cyclopropa[d]pyrrolo[1,2-a]azocin-6-yl)carbamoyl)benzo[b]thiophen-5-yl)methyl)phosphonic acid]
16 | 0.3 to 3 | < 0.1 | Cc1cccc(C2CN(C(=O)[C@@H]3CC[C@@H]4C[C@@H]5C[C@@H]5C[C@H](NC(=O)c5cc6cc(C(F)(F)P(=O)(O)O)ccc6s5)C(=O)N43)C2)c1 [Compound 68, (difluoro(2-(((3S,6S,7aR,8aS,9aR)-5-oxo-3-(3-(m-tolyl)azetidine-1-carbonyl)decahydro-1H-cyclopropa[d]pyrrolo[1,2-a]azocin-6-yl)carbamoyl)benzo[b]thiophen-5-yl)methyl)phosphonic acid]
